Columns and labels:
Type in all cases: cell-based
[1] = system: A375 (malignant melanoma); assay: MTT antiproliferative assay, A375; conditions: Homo sapiens, A-375, A375, 10 μM, 48 or 72 h, read-out: inhibition of cell growth, A375
Protocol: (§1) The antiproliferative activity of a test compound was determined in cell lines: MDA-MB-231 (breast cancer), HepG2 (liver cancer), SW620 (colon cancer), A375 (malignant melanoma), A431 (epidermoid carcinoma), A549 (lung adenocarcinoma), and HeLa ([…]). MDA-MB-231, HepG2, SW480, SW620, A375, and A431 cells were cultured in Dulbecco's modified Eagle's medium (DMEM) containing 10% fetal bovine serum (FBS). HeLa cells were cultured in MEM/EBSS (MEM) containing 10% FBS. A549 cells were maintained in Kaighn's modification of Ham's F-12 medium containing 10% FBS. The colorimetric MTT (3-(4,5-dimethylthiazol-2-yl)-2,5-diphenyltetrazolium bromide) assay was used to measure the cell viability of different cells following treatment with the test compound.
(§2) Briefly cells were seeded in a 96 well plate at a density of 2,000-5,000 cells/well. Following attachment, the cells were treated with the test compound in media at various concentrations ranging from 0.137 to 100 μM or at a single concentration of 10 μM. After the cells were incubated at 37° C. for 48 or 72 h, MTT (20 μL, 5 mg/mL in PBS) was added to each well and the cells were incubated for another 4 h at 37° C. The supernatant was removed carefully and 150 μL of DMSO was added to each well to dissolve the MTT formazan crystals. The plate was shaken for 15-20 min and the absorbance value of each well was determined using a multi-well plate reader at 490 nm. The wells treated with DMSO were taken as a vehicle control. Data were also obtained similarly for all the replicates and the percentage viability was determined with respect to the DMSO-treated cells. The results are summarized in Table 1 below, wherein A represents no less than 80% inhibition of cell growth at 10 μM; B represents no less than 50% but less than 80% inhibition of cell growth at 10 μM; C represents no less than 30% but less than 50% inhibition of cell growth at 10 μM; and D represents less than 30% inhibition of cell growth at 10 μM.

HepG2 (liver cancer) = assay: MTT antiproliferative assay, HepG2; conditions: Homo sapiens, HepG2, 10 μM, 48 or 72 h, read-out: inhibition of cell growth, HepG2
Protocol: as §1, §2

HeLa (ovarian cancer) = assay: MTT antiproliferative assay, HeLa; conditions: Homo sapiens, 48 or 72 h, read-out: inhibition of cell growth, HELA
Protocol: as §1, §2

SW620 (colon cancer) = assay: MTT antiproliferative assay, SW620; conditions: Homo sapiens, SW-620, SW620, 10 μM, 48 or 72 h, read-out: inhibition of cell growth, SW620
Protocol: as §1, §2

[2] = system: A549 (lung adenocarcinoma); assay: MTT antiproliferative assay, A549; conditions: Homo sapiens, A549, 10 μM, 48 or 72 h, read-out: inhibition of cell growth, A549
Protocol: as §1, §2

[3] = system: MDA-MB-231 (breast cancer); assay: MTT antiproliferative assay, MDA-MB-231; conditions: Homo sapiens, MDA-MB-231, 10 μM, 48 or 72 h, read-out: inhibition of cell growth, MDA-MB-231
Protocol: as §1, §2

[4] = system: A431 (epidermoid carcinoma); assay: MTT antiproliferative assay, A431; conditions: Homo sapiens, A-431, A431, 10 μM, 48 or 72 h, read-out: inhibition of cell growth, A431
Protocol: as §1, §2

Compound	inhibition at 10 µM [1] [%]	inhibition at 10 µM (HepG2 (liver cancer)) [%]	inhibition at 10 µM (HeLa (ovarian cancer)) [%]	inhibition at 10 µM (SW620 (colon cancer)) [%]	inhibition at 10 µM [2] [%]	inhibition at 10 µM [3] [%]	inhibition at 10 µM [4] [%]
CO[C@@]1(C)C2=CC=C3[C@@](C)(CC[C@@]4(C)[C@@H]5C[C@](C)(C(=O)O)CC[C@]5(C)CC[C@]34C)C2=CC(=O)[C@@H]1O [Compound A15, (2R,4aS,6aS,9S,10R,12bR,14aS,14bR)-10-hydroxy-9-methoxy-2,4a,6a,9,12b,14a-hexamethyl-11-oxo-1,2,3,4,4a,5,6,6a,9,10,11,12b,13,14,14a,14b-hexadecahydropicene-2-carboxylic acid]	50 to 80	30 to 50	50 to 80	30 to 50	< 30	≥ 80	50 to 80
CO[C@@]1(C)C2=CC=C3[C@@](C)(CC[C@@]4(C)[C@@H]5C[C@](C)(C(=O)OCc6ccccc6)CC[C@]5(C)CC[C@]34C)C2=CC(=O)[C@@H]1O [Compound A16, benzyl (2R,4aS,6aS,9S,10R,12bR,14aS,14bR)-10-hydroxy-9-methoxy-2,4a,6a,9,12b,14a-hexamethyl-11-oxo-1,2,3,4,4a,5,6,6a,9,10,11,12b,13,14,14a,14b-hexadecahydropicene-2-carboxylate]	50 to 80	≥ 80	≥ 80	≥ 80	≥ 80	≥ 80	≥ 80
CNC(=O)[C@]1(C)CC[C@]2(C)CC[C@]3(C)C4=CC=C5C(=CC(=O)[C@H](O)[C@@]5(C)OC)[C@]4(C)CC[C@@]3(C)[C@@H]2C1 [Compound A17, (2R,4aS,6aS,9S,10R,12bR,14aS,14bR)-10-hydroxy-9-methoxy-N,2,4a,6a,9,12b,14a-heptamethyl-11-oxo-1,2,3,4,4a,5,6,6a,9,10,11,12b,13,14,14a,14b-hexadecahydropicene-2-carboxamide]	50 to 80	≥ 80	50 to 80	≥ 80	30 to 50	≥ 80	≥ 80
CO[C@@]1(C)C2=CC=C3[C@@](C)(CC[C@@]4(C)[C@@H]5C[C@](C)(CO)CC[C@]5(C)CC[C@]34C)C2=CC(=O)[C@@H]1O [Compound A18, (3R,4S,6bS,8aS,11R,12aR,12bS,14aR)-3-hydroxy-11-(hydroxymethyl)-4-methoxy-4,6b,8a,11,12b,14a-hexamethyl-2,3,4,6b,7,8,8a,9,10,11,12,12a,12b,13,14,14a-hexadecahydropicen-2-one]	50 to 80	≥ 80	≥ 80	≥ 80	30 to 50	≥ 80	≥ 80
CO[C@@]1(C)C2=CC=C3[C@@](C)(CC[C@@]4(C)[C@@H]5C[C@](C)(C=O)CC[C@]5(C)CC[C@]34C)C2=CC(=O)[C@@H]1O [Compound A19, (2R,4aS,6aS,9S,10R,12bR,14aS,14bR)-10-hydroxy-9-methoxy-2,4a,6a,9,12b,14a-hexamethyl-11-oxo-1,2,3,4,4a,5,6,6a,9,10,11,12b,13,14,14a,14b-hexadecahydropicene-2-carbaldehyde]	30 to 50	50 to 80	≥ 80	50 to 80	50 to 80	50 to 80	≥ 80
COC(=O)[C@]1(C)CC[C@]2(C)CC[C@]3(C)C4=CC=C5C(=CC(=O)[C@H](O)[C@@]5(C)OC)[C@]4(C)CC[C@@]3(C)[C@@H]2C1 [Compound A20, methyl (2R,4aS,6aS,9S,10R,12bR,14aS,14bR)-10-hydroxy-9-methoxy-2,4a,6a,9,12b,14a-hexamethyl-11-oxo-1,2,3,4,4a,5,6,6a,9,10,11,12b,13,14,14a,14b-hexadecahydropicene-2-carboxylate]	50 to 80	≥ 80	≥ 80	≥ 80	≥ 80	≥ 80	≥ 80
CO[C@@]1(C)C2CCC3[C@@](C)(CC[C@@]4(C)[C@@H]5C[C@](C)(C(=O)O)CC[C@]5(C)CC[C@]34C)C2=CC(=O)[C@@H]1O (stereo partly drawn) [Compound A21, (2R,4aS,6aR,9S,10R,12bR,14aS,14bR)-10-hydroxy-9-methoxy-2,4a,6a,9,12b,14a-hexamethyl-11-oxo-1,2,3,4,4a,5,6,6a,6b,7,8,8a,9,10,11,12b,13,14,14a,14b-icosahydropicene-2-carboxylic acid]	< 30	< 30	< 30	< 30	< 30	< 30	< 30
CCCC(=O)O[C@H]1C(=O)C=C2C(=CC=C3[C@@]2(C)CC[C@@]2(C)[C@@H]4C[C@](C)(C(=O)NC)CC[C@]4(C)CC[C@]32C)[C@]1(C)OC [Compound A23, (3R,4S,6bS,8aS,11R,12aR,12bS,14aR)-4-methoxy-4,6b,8a,11,12b,14a-hexamethyl-11-(methylcarbamoyl)-2-oxo-2,3,4,6b,7,8,8a,9,10,11,12,12a,12b,13,14,14a-hexadecahydropicen-3-yl butyrate]	50 to 80	≥ 80	≥ 80	≥ 80	≥ 80	≥ 80	≥ 80
CCCC(=O)O[C@H]1C(O)C=C2C(=CC=C3[C@@]2(C)CC[C@@]2(C)[C@@H]4C[C@](C)(C(=O)OC)CC[C@]4(C)CC[C@]32C)[C@]1(C)OC (stereo partly drawn) [Compound A25, methyl (2R,4aS,6aS,9S,10S,12bR,14aS,14bR)-10-(butyryloxy)-11-hydroxy-9-methoxy-2,4a,6a,9,12b,14a-hexamethyl-1,2,3,4,4a,5,6,6a,9,10,11,12b,13,14,14a,14b-hexadecahydropicene-2-carboxylate]	< 30	< 30	< 30	< 30	< 30	< 30	< 30
CNC1(O)C(=O)C=C2C(=CC=C3[C@@]2(C)CC[C@@]2(C)[C@@H]4C[C@](C)(C(=O)OC)CC[C@]4(C)CC[C@]32C)[C@]1(C)OC (stereo partly drawn) [Compound A26, methyl (2R,4aS,6aS,9S,12bR,14aS,14bR)-10-hydroxy-9-methoxy-2,4a,6a,9,12b,14a-hexamethyl-10-(methylamino)-11-oxo-1,2,3,4,4a,5,6,6a,9,10,11,12b,13,14,14a,14b-hexadecahydropicene-2-carboxylate]	30 to 50	30 to 50	30 to 50	30 to 50	< 30	30 to 50	30 to 50
CCO[C@]1(C)C(=O)C(=O)C=C2C1=CC=C1[C@@]2(C)CC[C@@]2(C)[C@@H]3C[C@](C)(C(=O)O)CC[C@]3(C)CC[C@]12C [Compound A28, (2R,4aS,6aS,9S,12bR,14aS,14bR)-9-ethoxy-2,4a,6a,9,12b,14a-hexamethyl-10,11-dioxo-1,2,3,4,4a,5,6,6a,9,10,11,12b,13,14,14a,14b-hexadecahydropicene-2-carboxylic acid]	30 to 50	50 to 80	≥ 80	30 to 50	30 to 50	50 to 80	50 to 80
CO[C@@]1(C)C2=CC=C3[C@@](C)(CC[C@@]4(C)[C@@H]5C[C@](C)(C(=O)O)CC[C@]5(C)CC[C@]34C)C2=CC(O)C1O (stereo partly drawn) [Compound A29, (2R,4aS,6aS,9S,12bR,14aS,14bR)-10,11-dihydroxy-9-methoxy-2,4a,6a,9,12b,14a-hexamethyl-1,2,3,4,4a,5,6,6a,9,10,11,12b,13,14,14a,14b-hexadecahydropicene-2-carboxylic acid]	< 30	< 30	50 to 80	< 30	< 30	< 30	< 30
